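Briefly, cells in 96-well plates were exposed to five compound concentrations for 48 h, and endpoints were estimated by linear interpolation. The concentration for full growth arrest is given as TGI.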
Assays:
Test in all cases: NCI tumour cell line growth inhibition, 48 h
SK-MEL-28 melanoma = tested on: SK-MEL-28 melanoma
BT-549 breast = tested on: BT-549 breast
K-562 leukemia = tested on: K-562 leukemia
RPMI-8226 leukemia = tested on: RPMI-8226 leukemia
SNB-75 CNS = tested on: SNB-75 CNS
MCF7 breast = tested on: MCF7 breast
OVCAR-3 ovarian = tested on: OVCAR-3 ovarian
SK-MEL-2 melanoma = tested on: SK-MEL-2 melanoma
HOP-92 NSCLC = tested on: HOP-92 NSCLC
ACHN renal = tested on: ACHN renal
SNB-19 CNS = tested on: SNB-19 CNS
LOX IMVI melanoma = tested on: LOX IMVI melanoma
NCI/ADR-RES ovarian = tested on: NCI/ADR-RES ovarian
OVCAR-5 ovarian = tested on: OVCAR-5 ovarian
SK-OV-3 ovarian = tested on: SK-OV-3 ovarian
HOP-62 NSCLC = tested on: HOP-62 NSCLC
PC-3 prostate = tested on: PC-3 prostate
RXF 393 renal = tested on: RXF 393 renal
UO-31 renal = tested on: UO-31 renal
UACC-62 melanoma = tested on: UACC-62 melanoma
MDA-MB-435 = tested on: MDA-MB-435
MDA-N = tested on: MDA-N
MALME-3M melanoma = tested on: MALME-3M melanoma
MOLT-4 leukemia = tested on: MOLT-4 leukemia
HT29 colon = tested on: HT29 colon
MDA-MB-231 breast = tested on: MDA-MB-231 breast
SF-268 CNS = tested on: SF-268 CNS
NCI-H226 lung = tested on: NCI-H226 lung
CAKI-1 renal = tested on: CAKI-1 renal
M14 melanoma = tested on: M14 melanoma
HS 578T breast = tested on: HS 578T breast
HCT-116 colon = tested on: HCT-116 colon
CCRF-CEM leukemia = tested on: CCRF-CEM leukemia
SK-MEL-5 melanoma = tested on: SK-MEL-5 melanoma
T-47D breast = tested on: T-47D breast
U251 CNS = tested on: U251 CNS
786-0 renal = tested on: 786-0 renal
A549 NSCLC = tested on: A549 NSCLC
SF-539 CNS = tested on: SF-539 CNS
SF-295 CNS = tested on: SF-295 CNS
EKVX NSCLC = tested on: EKVX NSCLC
SW-620 colon = tested on: SW-620 colon
UACC-257 melanoma = tested on: UACC-257 melanoma
OVCAR-8 ovarian = tested on: OVCAR-8 ovarian
KM12 colon = tested on: KM12 colon
NCI-H522 lung = tested on: NCI-H522 lung
NCI-H23 lung = tested on: NCI-H23 lung
COLO 205 colon = tested on: COLO 205 colon
TK-10 renal = tested on: TK-10 renal
HL-60(TB) leukemia = tested on: HL-60(TB) leukemia
IGROV1 ovarian = tested on: IGROV1 ovarian
HCT-15 colon = tested on: HCT-15 colon
SR leukemia = tested on: SR leukemia
NCI-H460 lung = tested on: NCI-H460 lung
A498 renal = tested on: A498 renal
OVCAR-4 ovarian = tested on: OVCAR-4 ovarian
SN12C renal = tested on: SN12C renal
HCC-2998 colon = tested on: HCC-2998 colon
DU-145 prostate = tested on: DU-145 prostate

Q: How did the TGI (SK-MEL-28 melanoma) turn out when `COC(=O)[C@](C)(Cc1ccccc1)NC(=O)[C@@H](C)N1[C@@H](c2ccccc2)COC1(C)C` was run?
A: > 100 µM

Q: What about the TGI (BT-549 breast) of the same molecule?
A: > 100 µM

Q: And the TGI (K-562 leukemia)?
A: > 100 µM

Q: And the TGI (RPMI-8226 leukemia)?
A: > 100 µM

Q: And the TGI (SNB-75 CNS)?
A: 75.8 µM

Q: What about the TGI (MCF7 breast) of the same molecule?
A: > 100 µM

Q: What about the TGI (OVCAR-3 ovarian) of the same molecule?
A: > 100 µM

Q: And the TGI (SK-MEL-2 melanoma)?
A: > 100 µM

Q: And the TGI (HOP-92 NSCLC)?
A: > 100 µM

Q: And the TGI (ACHN renal)?
A: > 100 µM

Q: What about the TGI (SNB-19 CNS) of the same molecule?
A: > 100 µM

Q: What about the TGI (LOX IMVI melanoma) of the same molecule?
A: > 100 µM

Q: What about the TGI (NCI/ADR-RES ovarian) of the same molecule?
A: > 100 µM

Q: And the TGI (OVCAR-5 ovarian)?
A: > 100 µM

Q: What about the TGI (SK-OV-3 ovarian) of the same molecule?
A: > 100 µM

Q: What about the TGI (HOP-62 NSCLC) of the same molecule?
A: > 100 µM

Q: What about the TGI (PC-3 prostate) of the same molecule?
A: > 100 µM

Q: What about the TGI (RXF 393 renal) of the same molecule?
A: > 100 µM

Q: And the TGI (UO-31 renal)?
A: > 100 µM

Q: And the TGI (UACC-62 melanoma)?
A: > 100 µM

Q: And the TGI (MDA-MB-435)?
A: > 100 µM

Q: What about the TGI (MDA-N) of the same molecule?
A: > 100 µM

Q: And the TGI (MALME-3M melanoma)?
A: > 100 µM

Q: And the TGI (MOLT-4 leukemia)?
A: > 100 µM

Q: What about the TGI (HT29 colon) of the same molecule?
A: > 100 µM

Q: And the TGI (MDA-MB-231 breast)?
A: > 100 µM

Q: And the TGI (SF-268 CNS)?
A: > 100 µM

Q: What about the TGI (NCI-H226 lung) of the same molecule?
A: > 100 µM

Q: What about the TGI (CAKI-1 renal) of the same molecule?
A: > 100 µM

Q: What about the TGI (M14 melanoma) of the same molecule?
A: > 100 µM

Q: What about the TGI (HS 578T breast) of the same molecule?
A: > 100 µM

Q: What about the TGI (HCT-116 colon) of the same molecule?
A: > 100 µM

Q: And the TGI (CCRF-CEM leukemia)?
A: > 100 µM

Q: And the TGI (SK-MEL-5 melanoma)?
A: > 100 µM

Q: And the TGI (T-47D breast)?
A: > 100 µM

Q: And the TGI (U251 CNS)?
A: > 100 µM

Q: And the TGI (786-0 renal)?
A: > 100 µM

Q: And the TGI (A549 NSCLC)?
A: > 100 µM

Q: And the TGI (SF-539 CNS)?
A: > 100 µM

Q: What about the TGI (SF-295 CNS) of the same molecule?
A: > 100 µM

Q: And the TGI (EKVX NSCLC)?
A: > 100 µM

Q: What about the TGI (SW-620 colon) of the same molecule?
A: > 100 µM

Q: And the TGI (UACC-257 melanoma)?
A: > 100 µM

Q: And the TGI (OVCAR-8 ovarian)?
A: > 100 µM

Q: And the TGI (KM12 colon)?
A: > 100 µM

Q: What about the TGI (NCI-H522 lung) of the same molecule?
A: 99.3 µM

Q: And the TGI (NCI-H23 lung)?
A: > 100 µM

Q: What about the TGI (COLO 205 colon) of the same molecule?
A: 52.2 µM

Q: And the TGI (TK-10 renal)?
A: > 100 µM

Q: And the TGI (HL-60(TB) leukemia)?
A: > 100 µM

Q: What about the TGI (IGROV1 ovarian) of the same molecule?
A: > 100 µM

Q: What about the TGI (HCT-15 colon) of the same molecule?
A: > 100 µM

Q: And the TGI (SR leukemia)?
A: > 100 µM

Q: What about the TGI (NCI-H460 lung) of the same molecule?
A: > 100 µM

Q: What about the TGI (A498 renal) of the same molecule?
A: > 100 µM

Q: What about the TGI (OVCAR-4 ovarian) of the same molecule?
A: > 100 µM

Q: What does the source list for `[N-]=[N+]=CC(=O)COC(=O)c1ccccc1`?
A: TGI (SK-MEL-28 melanoma): > 100 µM; TGI (BT-549 breast): > 100 µM; TGI (K-562 leukemia): > 100 µM; TGI (RPMI-8226 leukemia): > 100 µM; TGI (SNB-75 CNS): > 100 µM; TGI (MCF7 breast): > 100 µM; TGI (OVCAR-3 ovarian): > 100 µM; TGI (SK-MEL-2 melanoma): > 100 µM; TGI (HOP-92 NSCLC): > 100 µM; TGI (ACHN renal): > 100 µM; TGI (SNB-19 CNS): > 100 µM; TGI (LOX IMVI melanoma): > 100 µM; TGI (NCI/ADR-RES ovarian): > 100 µM; TGI (OVCAR-5 ovarian): > 100 µM; TGI (SK-OV-3 ovarian): > 100 µM; TGI (HOP-62 NSCLC): > 100 µM; TGI (PC-3 prostate): > 100 µM; TGI (RXF 393 renal): > 100 µM; TGI (UO-31 renal): > 100 µM; TGI (UACC-62 melanoma): > 100 µM; TGI (MDA-MB-435): > 100 µM; TGI (MDA-N): > 100 µM; TGI (MALME-3M melanoma): > 100 µM; TGI (MOLT-4 leukemia): > 100 µM; TGI (HT29 colon): > 100 µM; TGI (SN12C renal): > 100 µM; TGI (MDA-MB-231 breast): > 100 µM; TGI (SF-268 CNS): > 100 µM; TGI (HCC-2998 colon): > 100 µM; TGI (NCI-H226 lung): > 100 µM; TGI (CAKI-1 renal): > 100 µM; TGI (M14 melanoma): > 100 µM; TGI (DU-145 prostate): > 100 µM; TGI (HCT-116 colon): > 100 µM; TGI (CCRF-CEM leukemia): > 100 µM; TGI (SK-MEL-5 melanoma): > 100 µM; TGI (T-47D breast): > 100 µM; TGI (U251 CNS): > 100 µM; TGI (786-0 renal): > 100 µM; TGI (A549 NSCLC): > 100 µM; TGI (SF-539 CNS): > 100 µM; TGI (SF-295 CNS): > 100 µM; TGI (EKVX NSCLC): > 100 µM; TGI (SW-620 colon): > 100 µM; TGI (UACC-257 melanoma): > 100 µM; TGI (OVCAR-8 ovarian): > 100 µM; TGI (KM12 colon): > 100 µM; TGI (NCI-H522 lung): > 100 µM; TGI (NCI-H23 lung): > 100 µM; TGI (COLO 205 colon): > 100 µM; TGI (TK-10 renal): > 100 µM; TGI (HL-60(TB) leukemia): > 100 µM; TGI (IGROV1 ovarian): > 100 µM; TGI (HCT-15 colon): > 100 µM; TGI (SR leukemia): > 100 µM; TGI (NCI-H460 lung): > 100 µM; TGI (A498 renal): > 100 µM; TGI (OVCAR-4 ovarian): > 100 µM

Reference: PubChem BioAssay (NCI)
